Structures can show the parent of a compound that is named as a salt.
Legend:
OATP1B1 = biological target: T1, OATP1B1 (Homo sapiens, UniProt Q9Y6L6); experiment: Uptake transporter inhibition assay, OATP1B1; type: cell-based; details: HEK293 cells overexpressing transporter
T1 construct: host or cells: HEK293
T1 sequence (Q9Y6L6 1-691): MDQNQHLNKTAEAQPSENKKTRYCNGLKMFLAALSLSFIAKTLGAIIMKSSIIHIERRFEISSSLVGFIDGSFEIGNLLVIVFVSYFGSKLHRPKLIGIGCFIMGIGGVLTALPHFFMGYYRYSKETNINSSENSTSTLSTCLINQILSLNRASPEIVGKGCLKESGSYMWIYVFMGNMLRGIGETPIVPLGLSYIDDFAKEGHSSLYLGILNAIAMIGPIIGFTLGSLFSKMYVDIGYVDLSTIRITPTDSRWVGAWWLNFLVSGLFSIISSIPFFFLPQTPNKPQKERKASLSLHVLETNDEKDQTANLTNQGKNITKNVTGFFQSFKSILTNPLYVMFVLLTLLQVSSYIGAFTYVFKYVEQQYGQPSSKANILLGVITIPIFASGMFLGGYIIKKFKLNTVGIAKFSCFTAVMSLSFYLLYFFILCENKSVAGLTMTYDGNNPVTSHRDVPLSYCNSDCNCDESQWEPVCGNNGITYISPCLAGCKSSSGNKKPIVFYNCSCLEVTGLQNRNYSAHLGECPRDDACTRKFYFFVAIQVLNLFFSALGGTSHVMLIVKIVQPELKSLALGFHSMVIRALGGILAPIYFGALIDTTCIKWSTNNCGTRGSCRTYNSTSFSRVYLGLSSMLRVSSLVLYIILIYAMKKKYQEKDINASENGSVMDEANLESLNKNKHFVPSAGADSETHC
Description: (§1) Experiment B4: Bile Acid Transporters Inhibition in the Liver.
(§2) The compound was tested on a panel of 10 transporters: BSEP, MRP2, MRP3, MRP4 in a vesicular transport inhibition assay and NTCP, OAT1, OAT2v1, OATP1A2, OATP1B1, OATP1B3 in an uptake transporter inhibition assays.
(§3) Transporter uptake inhibition test was performed on mammal HEK293 cells overexpressing of a respective transporter. Cells were cultured at 37±1° C. and seeded on 96-well tissue culture plate at 1×10^5/well. Substrate was removed prior to experiment and cells were washed twice with 100 μl of respective buffer (HK pH 7.4 for OATP1B1 and HBSS pH 7.4 for NTCP, OAT1, OAT2v1, OATP1A2, and OATP1B3). Uptake studies were performed at 37±1° C. in 50 μl of respective buffer containing radioactively tagged substrate and tested compound or solvent.
(§4) After experiment cells were washed twice with 100 μl of ice-cold respective buffer and lysed with 50 μl of 0.1M NaOH. Transport of radioactively tagged substrate was determined by scintillation counter measurement.

NTCP = biological target: T2, NTCP (Homo sapiens, UniProt Q14973); experiment: Uptake transporter inhibition assay, NTCP; type: cell-based; details: HEK293 cells overexpressing transporter
T2 construct: host or cells: HEK293
T2 sequence (Q14973 1-349): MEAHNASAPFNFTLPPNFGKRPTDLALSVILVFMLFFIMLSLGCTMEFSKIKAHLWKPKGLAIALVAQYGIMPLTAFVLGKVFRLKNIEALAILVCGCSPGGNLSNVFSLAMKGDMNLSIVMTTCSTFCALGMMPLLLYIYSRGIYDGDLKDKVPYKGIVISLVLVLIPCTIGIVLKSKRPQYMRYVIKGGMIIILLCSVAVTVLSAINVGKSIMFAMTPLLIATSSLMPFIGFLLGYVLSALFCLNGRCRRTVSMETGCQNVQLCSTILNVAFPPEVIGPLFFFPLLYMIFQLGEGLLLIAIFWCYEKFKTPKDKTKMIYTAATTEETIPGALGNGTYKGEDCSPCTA
Description: as §1, §2, §3, §4

Q: `Cc1cc(OCCCS(C)(=O)=O)cc(C)c1-c1cccc(COc2ccc3c(c2)OC[C@H]3CC(=O)O)c1` [Example R1, 2[(3S)-6-({3-[4-(3-methanesulfonylpropoxy)-2,6-dimethylphenyl]-phenyl}methoxy)-2,3-dihydro-1-benzofuran-3-yl]acetic acid, reference compound] was tested. Which IC50 (OATP1B1) did it give?
A: The IC50 was 0.49 µM.

Q: What about the IC50 (NTCP) of the same molecule?
A: The IC50 was 53.1 µM.

Q: What does the source list for `CC#C[C@@H](CC(=O)O)c1ccc(OCC(C)=C(C)C)cc1` [Example S1, (3S)-3-{4-[(2,3-dimethylbut-2-en-1-yl)oxy]phenyl}hex-4-ynoic acid calcium salt]?
A: IC50 (OATP1B1): 17.9 µM; IC50 (NTCP): 46.8 µM
